# Read-outs that look alike come from different tables or passages of the source.
# Assays:
# Type in all cases: cell-based
# [1] = tested on: Candida lusitaniae ATCC 3449; test: Broth microdilution, C. lusitaniae ATCC 3449; conditions: Cl 3449
# Method: (§1) The antibacterial activity of the obtained thiosemicarbazides and hydrazide–hydrazones was determined by evaluating their ability to inhibit microbial growth in vitro using the broth microdilution method, according to the guidelines of the European Committee on Antimicrobial Susceptibility Testing (EUCAST). The method involved the preparation of microbial suspensions with a standardized density of 0.5 on the McFarland scale (equivalent to 1.5 × 10^8 colony-forming units/mL for bacteria and […] for fungi). A solution of the test substances was then prepared (initial concentration 1000 µg/mL, diluted in sterile Mueller-Hinton broth for bacteria or Mueller-Hinton with 2% glucose for fungi). The test was carried out in 96-well polystyrene flat-bottom plates (Medlab, Poland) with 100 µL of appropriate sterile microbiological medium in each well. The first wells were filled with 200 µL of the test substance, diluted to the initial concentration, and then double-decreasing dilutions were made under aseptic conditions using an automatic pipette. The final step was the addition of a 10-fold diluted microbial suspension of 2 µL. At the same time, the following controls were included: (a) medium control (100 µL of sterile medium without microorganisms added), (b) microbial viability control, (c) test substance control (dilutions without added micro-organisms), (d) positive control of the drug used in the clinic. The plates thus prepared were incubated for 18 ± 2 h at 35 ± 2 °C under conditions optimal for the growth of the test microorganisms. After incubation, the spectrophotometric absorbance at 570 nm in each well of the plate was read. The aim of this part of the study was to determine two parameters: the minimum inhibitory concentration (MIC) and the minimum bactericidal or fungicidal concentration (MBC/MFC) of the test compound. […] The MBC value was determined by adding 5 µL of the contents of each well of the plate to solid sterile MHA or MHA + 2%glc medium for bacteria and fungi, respectively. The area on the plate where 99.9% inhibition of microbial growth was observed indicated the lethal concentration. In addition, the quotient MBC(MFC)/MIC could be determined to assess the nature of the activity of the test substance. If MBC(MFC)/MIC was <4, the test substance was bactericidal/fungicidal, whereas if MBC(MFC)/MIC was ≥4, it was bacteriostatic/fungistatic. Amoxicillin (Glentham Life Sciences, USA) and nystatin (Glentham Life Sciences, USA) were used as the controls for this assay.
# (§2) The test was performed either on bacteria, comprising: Gram-positive (Staphylococcus aureus ATCC 25923, Staphylococcus aureus ATCC 6538, Staphylococcus aureus ATCC 43300 methicillin-resistant MRSA, Staphylococcus epidermidis ATCC 12228, Micrococcus luteus ATCC 10240, Bacillus subtilis ATCC 6633, Bacillus cereus ATCC 10876) and Gram-negative (Escherichia coli ATCC 25922, Pseudomonas aeruginosa ATCC 27853, Proteus mirabilis ATCC 12453, Klebsiella pneumoniae ATCC 13883) or yeast (Candida parapsilosis ATCC 22019, Candida glabrata ATCC 90030, Candida krusei ATCC 14243, Candida glabrata ATCC 15126, Candida tropicalis ATCC 1369, Candida auris CDC B11903, Candida lusitaniae ATCC 3449) reference strains from the American Type Culture Collection (ATCC) or the Centers for Disease Control and Prevention (CDC).
# [2] = tested on: Candida glabrata ATCC 15126; test: Broth microdilution, C. glabrata ATCC 15126; conditions: Cg 15126
# Method: as §1, §2
# Candida auris CDC B11903 = test: Broth microdilution, C. auris CDC B11903; conditions: Ca B11903
# Method: as §1, §2
# [3] = tested on: Candida glabrata ATCC 90030; test: Broth microdilution, C. glabrata ATCC 90030; conditions: Cg 90030
# Method: as §1, §2
# [4] = tested on: Candida krusei ATCC 14243; test: Broth microdilution, C. krusei ATCC 14243; conditions: Ck 14243
# Method: as §1, §2
# [5] = tested on: Staphylococcus aureus ATCC 25923; test: Broth microdilution, S. aureus ATCC 25923; conditions: Staphylococcus aureus, ATCC25923, Sa 25923; for MBC: read-out: MBC; for MIC: read-out: MIC
# Method: as §1, §2
# [6] = tested on: Candida tropicalis ATCC 1369; test: Broth microdilution, C. tropicalis ATCC 1369; conditions: Ct 1369
# Method: as §1, §2
# [7] = tested on: Staphylococcus aureus ATCC 43300 methicillin-resistant MRSA; test: Broth microdilution, S. aureus ATCC 43300 MRSA; conditions: Staphylococcus aureus, Sa 43300 MRSA; for MBC: read-out: MBC; for MIC: read-out: MIC
# Method: as §1, §2
# [8] = tested on: Micrococcus luteus ATCC 10240; test: Broth microdilution, M. luteus ATCC 10240; conditions: Micrococcus luteus, ATCC10240, Ml 10240; for MBC: read-out: MBC; for MIC: read-out: MIC
# Method: as §1, §2
# [9] = tested on: Staphylococcus epidermidis ATCC 12228; test: Broth microdilution, S. epidermidis ATCC 12228; conditions: Se 12228; for MBC / MIC: Staphylococcus epidermidis, ATCC12228; for MBC: read-out: MBC; for MIC: read-out: MIC
# Method: as §1, §2
# [10] = tested on: Bacillus subtilis ATCC 6633; test: Broth microdilution, B. subtilis ATCC 6633; conditions: Bs 6633; for MBC / MIC: Bacillus subtilis, ATCC6633; for MBC: read-out: MBC; for MIC: read-out: MIC
# Method: as §1, §2
# [11] = tested on: Candida parapsilosis ATCC 22019; test: Broth microdilution, C. parapsilosis ATCC 22019; conditions: Cp 22019
# Method: as §1, §2
# [12] = tested on: Bacillus cereus ATCC 10876; test: Broth microdilution, B. cereus ATCC 10876; conditions: Bacillus cereus, ATCC10876, Bc 10876; for MBC: read-out: MBC; for MIC: read-out: MIC
# Method: as §1, §2
# [13] = tested on: Staphylococcus aureus ATCC 6538; test: Broth microdilution, S. aureus ATCC 6538; conditions: Staphylococcus aureus, ATCC6538, Sa 6538; for MBC: read-out: MBC; for MIC: read-out: MIC
# Method: as §1, §2
# [14] = <4 bactericidal, ≥4 bacteriostatic
Structure (SMILES),MBC [5] [mg/L],MIC [5] [mg/L],MBC [7] [mg/L],MIC [7] [mg/L],MBC [8] [mg/L],MIC [8] [mg/L],MBC [9] [mg/L],MIC [9] [mg/L],MBC [10] [mg/L],MIC [10] [mg/L],MBC [12] [mg/L],MIC [12] [mg/L],MBC [13] [mg/L],MIC [13] [mg/L],other results
"Cc1cccc(NC(=S)NNC(=O)c2nc([N+](=O)[O-])cn2C)c1 [Compound 16, 1-[(1-methyl-4-nitroimidazol-2-yl)carbonyl]-4-(3-methylphenyl)-thiosemicarbazide]",> 1000,250,> 1000,125,> 1000,500,500,500,500,500,> 1000,250,> 1000,62.5,"MIC ([1]; Clavispora lusitaniae, ATCC3449, read-out: MIC): > 1000 mg/L; MIC ([2]; Nakaseomyces glabratus, ATCC15126, read-out: MIC): > 1000 mg/L; MIC (Candida auris CDC B11903; Candidozyma auris, CDCB11903, read-out: MIC): > 1000 mg/L; MIC ([3]; Nakaseomyces glabratus, ATCC90030, read-out: MIC): > 1000 mg/L; MIC ([4]; Pichia kudriavzevii, ATCC14243, read-out: MIC): > 1000 mg/L; MIC ([6]; Candida tropicalis, ATCC1369, read-out: MIC): > 1000 mg/L; MBC/MIC Ratio [9, 14]: 1; MBC/MIC Ratio [10, 14]: 1; MFC ([11]; Lodderomyces parapsilosis, ATCC22019, read-out: MFC): > 1000 mg/L; MIC ([11]; Lodderomyces parapsilosis, ATCC22019, read-out: MIC): 500 mg/L"
"CC1(C)S[C@@H]2[C@H](NC(=O)[C@H](N)c3ccc(O)cc3)C(=O)N2[C@H]1C(=O)O [AMX, amoxicillin, reference compound]",0.98,0.98,31.2,31.2,0.98,0.98,0.98,0.98,125,125,125,125,0.98,0.98,–
"C[C@@H]1[C@H](O)[C@@H](C)/C=C/C=C/CC/C=C/C=C/C=C/C=C/C(O[C@H]2O[C@H](C)[C@@H](O)[C@H](N)[C@@H]2O)CC2O[C@](O)(CC(O)C(O)CCC(O)CC(O)CC(O)CC(=O)O[C@H]1C)CC(O)C2C(=O)O (stereo partly shown) [NYS, nystatin, reference compound]",–,–,–,–,–,–,–,–,–,–,–,–,–,–,MFC [1]: 3.125 mg/L; MIC [1]: 1.56 mg/L; MFC [2]: 3.125 mg/L; MIC [2]: 1.56 mg/L; MFC (Candida auris CDC B11903): 15.625 mg/L; MIC (Candida auris CDC B11903): 6.25 mg/L; MFC [3]: 3.125 mg/L; MIC [3]: 1.56 mg/L; MFC [4]: 12.5 mg/L; MIC [4]: 12.5 mg/L; MFC [6]: 0.5 mg/L; MIC [6]: <0.781 mg/L; MFC [11]: 12.5 mg/L; MIC [11]: 12.5 mg/L
